ChEMBL document CHEMBL3871268, “Chalcogen containing heterocyclic scaffolds: New hybrids with antitumoral activity” (Eur J Med Chem, 2016)

Key:
[1] = Cytotoxicity against human MCF7 cells assessed as reduction in cell viability measured after 72 hrs by MTT assay; format: functional; conditions: MCF7, 72 h
[2] = Cytotoxicity against human PC3 cells assessed as reduction in cell viability measured after 72 hrs by MTT assay; format: functional; conditions: PC-3, 72 h
[3] = Cytotoxicity against human 184B5 cells assessed as reduction in cell viability measured after 72 hrs by MTT assay; format: toxicity, cell-based; conditions: for GI50 at 72 h: 184B5 cells; for LC50 / TGI: 184b5, 72 h
MCF7 = test: Selectivity index, ratio of GI50 for human 184B5 cells to GI50 for human MCF7 cells; format: functional
[4] = Cell cycle arrest in human MCF7 cells assessed as M1 quadrant cells at 18 uM measured after 48 hrs by propidium iodide staining-based flow cytometry (reference value: 98.1%); format: functional
[5] = Cell cycle arrest in human MCF7 cells assessed as sub-diploid cells at 18 uM measured after 48 hrs by propidium iodide staining-based flow cytometry (reference value: 1.9%); format: functional
[6] = Cell cycle arrest in human MCF7 cells assessed as M1 quadrant cells at 18 uM pretreated with pan-caspase inhibitor Z-VAD-FMK for 1 hr followed by compound addition measured after 48 hrs by propidium iodide staining-based flow cytometry assay (reference value: 98.1%); format: functional; design: scale not given: the % may be the effect or the level left
[7] = Cell cycle arrest in human MCF7 cells assessed as sub-diploid cells at 18 uM pretreated with pan-caspase inhibitor Z-VAD-FMK for 1 hr followed by compound addition measured after 48 hrs by propidium iodide staining-based flow cytometry assay (reference value: 1.9%); format: functional; design: scale not given: the % may be the effect or the level left
[8] = Cell cycle arrest in human MCF7 cells assessed as M1 quadrant cells at 18 uM pretreated with autophagy inhibitor wortmannin for 1 hr followed by compound addition measured after 48 hrs by propidium iodide staining-based flow cytometry assay (reference value: 98.1%); format: functional; design: scale not given: the % may be the effect or the level left
[9] = Cell cycle arrest in human MCF7 cells assessed as sub-diploid cells at 18 uM pretreated with autophagy inhibitor wortmannin for 1 hr followed by compound addition measured after 48 hrs by propidium iodide staining-based flow cytometry assay (reference value: 1.9%); format: functional; design: scale not given: the % may be the effect or the level left
[10] = Cell cycle analysis in human MCF7 cells assessed as accumulation at SubG1 phase at 1 uM measured after 24 hrs by propidium iodide staining-based flow cytometry (reference value: 2.6%); format: functional
[11] = Cell cycle analysis in human MCF7 cells assessed as accumulation at G0/G1 phase at 1 uM measured after 24 hrs by propidium iodide staining-based flow cytometry (reference value: 73.6%); format: functional
[12] = Cell cycle analysis in human MCF7 cells assessed as accumulation at S phase at 1 uM measured after 24 hrs by propidium iodide staining-based flow cytometry (reference value: 15.3%); format: functional
[13] = Cell cycle analysis in human MCF7 cells assessed as accumulation at G2/M phase at 1 uM measured after 24 hrs by propidium iodide staining-based flow cytometry (reference value: 8.9%); format: functional
[14] = Cell cycle analysis in human MCF7 cells assessed as accumulation at SubG1 phase at 5 uM measured after 24 hrs by propidium iodide staining-based flow cytometry (reference value: 2.6%); format: functional
[15] = Cell cycle analysis in human MCF7 cells assessed as accumulation at G0/G1 phase at 5 uM measured after 24 hrs by propidium iodide staining-based flow cytometry (reference value: 73.6%); format: functional
[16] = Cell cycle analysis in human MCF7 cells assessed as accumulation at S phase at 5 uM measured after 24 hrs by propidium iodide staining-based flow cytometry (reference value: 15.3%); format: functional
[17] = Cell cycle analysis in human MCF7 cells assessed as accumulation at G2/M phase at 5 uM measured after 24 hrs by propidium iodide staining-based flow cytometry (reference value: 8.9%); format: functional
[18] = Cell cycle analysis in human MCF7 cells assessed as accumulation at SubG1 phase at 10 uM measured after 24 hrs by propidium iodide staining-based flow cytometry (reference value: 2.6%); format: functional
[19] = Cell cycle analysis in human MCF7 cells assessed as accumulation at G0/G1 phase at 10 uM measured after 24 hrs by propidium iodide staining-based flow cytometry (reference value: 73.6%); format: functional
[20] = Cell cycle analysis in human MCF7 cells assessed as accumulation at S phase at 10 uM measured after 24 hrs by propidium iodide staining-based flow cytometry (reference value: 15.3%); format: functional
[21] = Cell cycle analysis in human MCF7 cells assessed as accumulation at G2/M phase at 10 uM measured after 24 hrs by propidium iodide staining-based flow cytometry (reference value: 8.9%); format: functional
[22] = Cell cycle analysis in human MCF7 cells assessed as accumulation at SubG1 phase at 18 uM measured after 24 hrs by propidium iodide staining-based flow cytometry (reference value: 2.6%); format: functional
[23] = Cell cycle analysis in human MCF7 cells assessed as accumulation at G0/G1 phase at 18 uM measured after 24 hrs by propidium iodide staining-based flow cytometry (reference value: 73.6%); format: functional
[24] = Cell cycle analysis in human MCF7 cells assessed as accumulation at S phase at 18 uM measured after 24 hrs by propidium iodide staining-based flow cytometry (reference value: 15.3%); format: functional
[25] = Cell cycle analysis in human MCF7 cells assessed as accumulation at G2/M phase at 18 uM measured after 24 hrs by propidium iodide staining-based flow cytometry (reference value: 8.9%); format: functional
[26] = Cell cycle analysis in human MCF7 cells assessed as accumulation at SubG1 phase at 25 uM measured after 24 hrs by propidium iodide staining-based flow cytometry (reference value: 2.6%); format: functional
[27] = Cell cycle analysis in human MCF7 cells assessed as accumulation at G0/G1 phase at 25 uM measured after 24 hrs by propidium iodide staining-based flow cytometry (reference value: 73.6%); format: functional
[28] = Cell cycle analysis in human MCF7 cells assessed as accumulation at S phase at 25 uM measured after 24 hrs by propidium iodide staining-based flow cytometry (reference value: 15.3%); format: functional
[29] = Cell cycle analysis in human MCF7 cells assessed as accumulation at G2/M phase at 25 uM measured after 24 hrs by propidium iodide staining-based flow cytometry (reference value: 8.9%); format: functional
[30] = Cell cycle arrest in human MCF7 cells assessed as increase in subdiploid cells at 18 uM after 48 hrs by TUNEL based flow cytometry assay; format: functional
[31] = Cell cycle arrest in human MCF7 cells assessed as M1 quadrant cells at 50 uM measured after 48 hrs by propidium iodide staining-based flow cytometry (reference value: 98.1%); format: functional
[32] = Cell cycle arrest in human MCF7 cells assessed as sub-diploid cells at 50 uM measured after 48 hrs by propidium iodide staining-based flow cytometry (reference value: 1.9%); format: functional
[33] = Cell cycle arrest in human MCF7 cells assessed as M1 quadrant cells at 50 uM pretreated with pan-caspase inhibitor Z-VAD-FMK for 1 hr followed by compound addition measured after 48 hrs by propidium iodide staining-based flow cytometry assay (reference value: 98.1%); format: functional; design: scale not given: the % may be the effect or the level left
[34] = Cell cycle arrest in human MCF7 cells assessed as sub-diploid cells at 50 uM pretreated with pan-caspase inhibitor Z-VAD-FMK for 1 hr followed by compound addition measured after 48 hrs by propidium iodide staining-based flow cytometry assay (reference value: 1.9%); format: functional; design: scale not given: the % may be the effect or the level left
[35] = Cell cycle arrest in human MCF7 cells assessed as M1 quadrant cells at 50 uM pretreated with autophagy inhibitor wortmannin for 1 hr followed by compound addition measured after 48 hrs by propidium iodide staining-based flow cytometry assay (reference value: 98.1%); format: functional; design: scale not given: the % may be the effect or the level left
[36] = Cell cycle arrest in human MCF7 cells assessed as sub-diploid cells at 50 uM pretreated with autophagy inhibitor wortmannin for 1 hr followed by compound addition measured after 48 hrs by propidium iodide staining-based flow cytometry assay (reference value: 1.9%); format: functional; design: scale not given: the % may be the effect or the level left
[37] = Cell cycle analysis in human MCF7 cells assessed as accumulation at SubG1 phase at 50 uM measured after 4 hrs by propidium iodide staining-based flow cytometry (reference value: 5.6%); format: functional
[38] = Cell cycle analysis in human MCF7 cells assessed as accumulation at G0/G1 phase at 50 uM measured after 4 hrs by propidium iodide staining-based flow cytometry (reference value: 72.1%); format: functional
[39] = Cell cycle analysis in human MCF7 cells assessed as accumulation at S phase at 50 uM measured after 4 hrs by propidium iodide staining-based flow cytometry (reference value: 13.2%); format: functional
[40] = Cell cycle analysis in human MCF7 cells assessed as accumulation at G2/M phase at 50 uM measured after 4 hrs by propidium iodide staining-based flow cytometry (reference value: 8.5%); format: functional
[41] = Cell cycle analysis in human MCF7 cells assessed as accumulation at SubG1 phase at 50 uM measured after 8 hrs by propidium iodide staining-based flow cytometry (reference value: 5.6%); format: functional
[42] = Cell cycle analysis in human MCF7 cells assessed as accumulation at G0/G1 phase at 50 uM measured after 8 hrs by propidium iodide staining-based flow cytometry (reference value: 72.1%); format: functional
[43] = Cell cycle analysis in human MCF7 cells assessed as accumulation at S phase at 50 uM measured after 8 hrs by propidium iodide staining-based flow cytometry (reference value: 13.2%); format: functional
[44] = Cell cycle analysis in human MCF7 cells assessed as accumulation at G2/M phase at 50 uM measured after 8 hrs by propidium iodide staining-based flow cytometry (reference value: 8.5%); format: functional
[45] = Cell cycle analysis in human MCF7 cells assessed as accumulation at SubG1 phase at 50 uM measured after 16 hrs by propidium iodide staining-based flow cytometry (reference value: 5.6%); format: functional
[46] = Cell cycle analysis in human MCF7 cells assessed as accumulation at G0/G1 phase at 50 uM measured after 16 hrs by propidium iodide staining-based flow cytometry (reference value: 72.1%); format: functional
[47] = Cell cycle analysis in human MCF7 cells assessed as accumulation at S phase at 50 uM measured after 16 hrs by propidium iodide staining-based flow cytometry (reference value: 13.2%); format: functional
[48] = Cell cycle analysis in human MCF7 cells assessed as accumulation at G2/M phase at 50 uM measured after 16 hrs by propidium iodide staining-based flow cytometry (reference value: 8.5%); format: functional
[49] = Cell cycle analysis in human MCF7 cells assessed as accumulation at SubG1 phase at 50 uM measured after 24 hrs by propidium iodide staining-based flow cytometry (reference value: 5.6%); format: functional
[50] = Cell cycle analysis in human MCF7 cells assessed as accumulation at G0/G1 phase at 50 uM measured after 24 hrs by propidium iodide staining-based flow cytometry (reference value: 72.1%); format: functional
[51] = Cell cycle analysis in human MCF7 cells assessed as accumulation at S phase at 50 uM measured after 24 hrs by propidium iodide staining-based flow cytometry (reference value: 13.2%); format: functional
[52] = Cell cycle analysis in human MCF7 cells assessed as accumulation at G2/M phase at 50 uM measured after 24 hrs by propidium iodide staining-based flow cytometry (reference value: 8.5%); format: functional
[53] = Cell cycle analysis in human MCF7 cells assessed as accumulation at SubG1 phase at 50 uM measured after 48 hrs by propidium iodide staining-based flow cytometry (reference value: 5.6%); format: functional
[54] = Cell cycle analysis in human MCF7 cells assessed as accumulation at G0/G1 phase at 50 uM measured after 48 hrs by propidium iodide staining-based flow cytometry (reference value: 72.1%); format: functional
[55] = Cell cycle analysis in human MCF7 cells assessed as accumulation at S phase at 50 uM measured after 48 hrs by propidium iodide staining-based flow cytometry (reference value: 13.2%); format: functional
[56] = Cell cycle analysis in human MCF7 cells assessed as accumulation at G2/M phase at 50 uM measured after 48 hrs by propidium iodide staining-based flow cytometry (reference value: 8.5%); format: functional
[57] = Cell cycle analysis in human MCF7 cells assessed as accumulation at SubG1 phase at 50 uM by propidium iodide staining-based flow cytometry; format: functional; conditions: TDE = time-dependent effect

Compound: Cc1noc(C)c1CSC#N
- GI50 [1]: 4.8 µM
- LC50 [1]: 84.9 µM
- TGI [1]: 44.6 µM
- GI50 [2]: 8 µM
- LC50 (concentration lethal to 50% of cells) [2]: 21.9 µM
- TGI [2]: 13.8 µM
- GI50 at 72 h [3]: 46.2 µM
- LC50 [3]: 99.5 µM
- TGI [3]: 74.2 µM
- RatioGI50 (MCF7): 9.6
- Activity [4]: 46%
- Activity [5]: 53.7%
- Activity [6]: 80.9%
- Activity [7]: 19.1%
- Activity [8]: 49.6%
- Activity [9]: 50.4%
- Activity [10]: 2%
- Activity [11]: 67.6%
- Activity [12]: 22.2%
- Activity [13]: 8.9%
- Activity [14]: 3.3%
- Activity [15]: 68.1%
- Activity [16]: 14.9%
- Activity [17]: 13.2%
- Activity [18]: 3.4%
- Activity [19]: 33.8%
- Activity [20]: 11.6%
- Activity [21]: 51.8%
- Activity [22]: 5.7%
- Activity [23]: 18.4%
- Activity [24]: 9.9%
- Activity [25]: 66.1%
- Activity [26]: 4.4%
- Activity [27]: 54.6%
- Activity [28]: 16.3%
- Activity [29]: 25.8%
- Activity [30]: > 60%

Compound: N#C[Se]Cc1ccc(-n2cccc2)cc1
- GI50 [1]: 2.4 µM
- LC50 [1]: > 100 µM
- TGI [1]: > 100 µM
- GI50 [2]: 59.9 µM
- LC50 (concentration lethal to 50% of cells) [2]: > 100 µM
- TGI [2]: > 100 µM
- GI50 at 72 h [3]: > 100 µM
- LC50 [3]: > 100 µM
- TGI [3]: > 100 µM
- RatioGI50 (MCF7): >41.8
- Activity [31]: 67.8%
- Activity [32]: 32.2%
- Activity [33]: 81.7%
- Activity [34]: 18.2%
- Activity [35]: 69.2%
- Activity [36]: 30.8%
- Activity [37]: 2.2%
- Activity [38]: 59.6%
- Activity [39]: 19.3%
- Activity [40]: 18.7%
- Activity [41]: 2.9%
- Activity [42]: 61.4%
- Activity [43]: 17.8%
- Activity [44]: 18.4%
- Activity [45]: 9.4%
- Activity [46]: 53.7%
- Activity [47]: 17.6%
- Activity [48]: 17.2%
- Activity [49]: 13.1%
- Activity [50]: 55.7%
- Activity [51]: 17.2%
- Activity [52]: 14%
- Activity [53]: 25.2%
- Activity [54]: 53.6%
- Activity [55]: 9.1%
- Activity [56]: 10.3%
- Activity [57]: Tde
